Results on seven compounds are retold here after US11180468B2, “Prodrugs of urolithins and uses thereof” (Amazentis SA, priority 2013, dated 2021).

Series [1] is described as follows: Solubility in phosphate buffer at pH 4 at room temperature, filtered solution analysed by HPLC against DMSO standard. Format: physicochemical. The note with it: phosphate buffer pH 4, room temperature; for solubility: aqueous buffer, thermodynamic from solid. How it is done:
(§1) All HPLC analyses were carried out on a 5 μL sample on an Agilent 1100 series HPLC system including HPLC pump, auto injector, column oven and PDA detector with a Waters XBridgeC18, 50×2.1 mm, 5 μm column at a temperature of 40° C. and a flow rate of 0.4 mL/min using the following gradient: […]
A maximum amount of each compound was dissolved in 400 μL of phosphate buffer at pH 4 at room temperature in a filter vial (Agilent 0.45 μm PP Mini-UniPrep™). The filtered solutions were analysed by HPLC as described above. The peak area of the substance dissolved in buffer was compared to that of a standard prepared in DMSO.

The nature of series [2]: Stability (degradation) in aqueous phosphate buffer solution at room temperature, HPLC percentage remaining. The class given is physicochemical. As to the method: as §1
The stability of the compounds in aqueous solution at room temperature was measured by dissolving the compounds in phosphate buffer of a pH chosen from 2, 3, 4, and/or 5. The compounds with low water solubility were first dissolved in DMSO and then diluted with phosphate buffer to contain 10% of DMSO. The samples were analysed by HPLC, as described above, at time 0 and several times thereafter. The peak area of the samples at these times were compared to the areas at t=0 to calculate the percentage remaining of the starting compound.
The solutions were prepared for each of the compounds as set out in Table 8. Plots of the percentage remaining of starting substance over time for each of the compounds measured are given in FIGS. 1-6, and t50 values (time taken for 50% of the starting compound to degrade) are given in Table 8.

A short description of series [3]: Oral bioavailability: plasma concentration of Urolithin after oral administration to rats. The conditions noted are these: rat. Format: in vivo, Sprague-Dawley rats. As to the method: The oral bioavailability of compounds of the invention can be assessed by orally administering a dose of compound in solution to Sprague-Dawley rats. Blood samples are collected from each rat before administration, and at intervals up to 24 hours thereafter. The blood samples are analysed for the plasma concentration of Urolithin. […] The Urolithin A was still present in the blood at a concentration of 2.6 mg/ml at 12 hours following administration in the case of the saline solution, and 1.30 mg/ml in the case of the DMSO/water solution. The Cmax and AUC of Urolithin A were higher when the compound of Example 4 was orally administered than when Urolithin A was orally administered.

Setting [4] is: Urolithin A compounds, molar basis, read-out: Solubility (mM/L).
The mark [5] stands for this setting: Urolithin A compounds, read-out: Solubility.
[6] abbreviates: Urolithin B compounds, molar basis, read-out: Solubility (mM/L).
Setting [7] is: Urolithin B compounds, read-out: Solubility.

Structures can show the parent of a compound that is named as a salt. Where two headings read alike, the source gives them in different places.

On to `CC(C)CC(N)C(=O)Oc1ccc2c(c1)oc(=O)c1cc(OC(=O)[C@H](N)CC(C)C)ccc12` (stereo in doubt) [Example 4, 8-{[(2R)-2-Amino-4-methylpentanoyl]oxy}-6-oxo-6H-benzo[c]chromen-3-yl (2S)-2-amino-4-methylpentanoate dihydrochloride], for which the solubility in series [1] (setting [4]) worked out at 4.73 mM. For the same compound, the solubility in series [1] (setting [5]) was determined as 2150 µg/mL. Moreover, the “Solubility compared in words” value in series [1] was “particularly soluble compared to the parent compound”. Also, the “Degradation rate compared in words” value in series [2] (at pH 4) is recorded as “degrades more slowly than Example 3”. Moreover, the “t50 (mins), time taken for 50% of the starting compound to degrade” value in series [2] (pH 4, 0.4 mg in 1 mL, FIG. 4) amounted to 405 min. In series [3], the “AUC of Urolithin A compared with oral administration of Urolithin A” value is given as “higher”; the “Cmax of Urolithin A compared with oral administration of Urolithin A” value is on record as “higher”; the “Delivery of Urolithin A into the blood following oral administration, compared with oral Urolithin A” value is on record as “at least as effectively”.

With `O=c1oc2cc(O)ccc2c2ccc(O)cc12` [Urolithin A, reference compound], the figures for the solubility in series [1] (setting [4]) and in series [1] (setting [5]) were 0.00057 mM and 0.13 µg/mL, respectively.

For the compound `CC(N)C(=O)Oc1ccc2c(c1)oc(=O)c1cc(OC(=O)[C@@H](C)N)ccc12` (stereo in doubt) [Example 2, 8-{[(2R)-2-Aminopropanoyl]oxy}-6-oxo-6H-benzo[c]chromen-3-yl (2S)-2-aminopropanoate dihydrochloride], the solubility was 4.86 mM in series [1] (setting [4]) and 1800 µg/mL in series [1] (setting [5]). Moreover, the “t50 (mins), time taken for 50% of the starting compound to degrade” value in series [2] (pH 4, 0.33 mg in 0.66 mL (second time), FIG. 2) worked out at 31 min; in series [2] (pH 4, 0.72 mg in 0.4 mL, FIG. 2), 56 min; in series [2] (pH 4, 0.94 mg in 1.8 mL (first time), FIG. 2) it was 29 min.

In the case of `NCC(=O)Oc1ccc2c(c1)oc(=O)c1cc(OC(=O)CN)ccc12` [Example 1, 8-[(2-Aminoacetyl)oxy]-6-oxo-6H-benzo[c]chromen-3-yl 2-aminoacetate dihydrochloride], the solubility in series [1] (setting [4]) is 5.64 mM; in series [1] (setting [5]) it was 1930 µg/mL. The “Solubility compared in words” value in series [1] is “more soluble than the Glycine urolithin B compound (Example 3)”. Besides, the “Degradation rate compared in words” value in series [2] (at pH 4) is given as “degrades more slowly than Example 2”. The “t50 (mins), time taken for 50% of the starting compound to degrade” value in series [2] (pH 2, 0.16 mg in 1 mL, FIG. 5) is 81 min; in series [2] (pH 4, 0.77 mg in 1 mL, FIG. 1) it was 74 min; in series [2] (pH 5, 0.16 mg in 1 mL, FIG. 5), 27 min.

In the case of `NCC(=O)Oc1ccc2c(c1)oc(=O)c1ccccc12` [Example 3, 6-Oxo-6H-benzo[c]chromen-3-yl 2-aminoacetate hydrochloride], the solubility was 4.94 mM in series [1] (setting [6]) and 1330 µg/mL in series [1] (setting [7]). The “Degradation rate compared in words” value in series [2] (at pH 4) is on record as “degrades more slowly than Example 1”. For the same compound, the “t50 (mins), time taken for 50% of the starting compound to degrade” value in series [2] (pH 4, 0.31 mg in 1 mL, FIG. 3) was 156 min.

Consider `O=c1oc2cc(O)ccc2c2ccccc12` [Urolithin B, reference compound], for which the figures for the solubility in series [1] (setting [6]) and in series [1] (setting [7]) were 0.00127 mM and 0.27 µg/mL, respectively.

With `CC(C)C[C@H](N)C(=O)Oc1ccc2c(c1)oc(=O)c1ccccc12` [Example 5, 6-Oxo-6H-benzo[c]chromen-3-yl (2S)-2-amino-4-methylpentanoate hydrochloride], the “Degradation rate compared in words” value in series [2] (at pH 2 and pH 5) is “degrades more slowly than Example 1”. Besides, the “t50 (mins), time taken for 50% of the starting compound to degrade” value in series [2] (pH 2, 0.2 mg in 1 mL, FIG. 6) came to 240 min; in series [2] (pH 5, 0.3 mg in 1 mL, FIG. 6), 125 min. Further, the “Increase in the rate of degradation when the pH of the solution is increased from 2 to 5” value in series [2] (pH 2 to pH 5) is given as “two-fold”.
